Data: ChEMBL document CHEMBL4406848, “Novel water soluble BODIPY compounds: Synthesis, photochemical, DNA interaction, topoisomerases inhibition and photodynamic activity properties” (Eur J Med Chem, 2019)

Key:
[1] = Induction of singlet oxygen generation in DMSO solution assessed as singlet oxygen quantum yield by measuring reduction in DPBF irradiated with 650 nanometer laser light; type: functional
[2] = Induction of singlet oxygen generation in TBS solution assessed as singlet oxygen quantum yield by measuring reduction in ADMA irradiated with 650 nanometer laser light; type: functional

With `CN(C)c1ccc2nc3ccc(=[N+](C)C)cc-3sc2c1` as the molecule, how does the Activity [1] read?
The Activity was 0.57.

And the Activity [2]?
The Activity was 0.52.
